Measured values taken from ChEMBL document CHEMBL1909046, “DrugMatrix in vitro pharmacology data”.

What was measured:
[1] = molecular target: T1, Calcitonin receptor (Homo sapiens, UniProt P30988); type: cell membranes, Membrane; conditions: t47d; further: in other assays of this panel Not Active means under 50% inhibition at 10 µM
T1 sequence (P30988 whole entry): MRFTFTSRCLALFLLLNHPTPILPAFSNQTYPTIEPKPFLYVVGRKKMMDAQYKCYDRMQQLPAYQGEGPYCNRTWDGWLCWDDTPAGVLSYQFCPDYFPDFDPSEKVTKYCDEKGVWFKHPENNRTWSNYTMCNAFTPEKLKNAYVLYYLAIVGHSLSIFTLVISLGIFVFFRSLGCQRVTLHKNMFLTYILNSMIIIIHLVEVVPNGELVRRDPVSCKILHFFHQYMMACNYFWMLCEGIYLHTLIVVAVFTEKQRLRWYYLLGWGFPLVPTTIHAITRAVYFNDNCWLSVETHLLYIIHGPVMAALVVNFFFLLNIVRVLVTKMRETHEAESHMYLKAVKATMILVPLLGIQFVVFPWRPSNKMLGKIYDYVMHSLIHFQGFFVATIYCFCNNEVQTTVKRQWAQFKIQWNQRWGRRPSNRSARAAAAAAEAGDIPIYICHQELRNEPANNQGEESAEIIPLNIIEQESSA

[2] = molecular target: T2, Thromboxane-A synthase (Homo sapiens, UniProt P24557); assay: biochemical; type: tissue-based, Platelet; conditions: platelet;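 further: enzyme inhibition assay with PGH2 supplied as substrate; in other assays of this panel Not Active means under 50% inhibition at 10 µM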
T2 sequence (P24557 whole entry): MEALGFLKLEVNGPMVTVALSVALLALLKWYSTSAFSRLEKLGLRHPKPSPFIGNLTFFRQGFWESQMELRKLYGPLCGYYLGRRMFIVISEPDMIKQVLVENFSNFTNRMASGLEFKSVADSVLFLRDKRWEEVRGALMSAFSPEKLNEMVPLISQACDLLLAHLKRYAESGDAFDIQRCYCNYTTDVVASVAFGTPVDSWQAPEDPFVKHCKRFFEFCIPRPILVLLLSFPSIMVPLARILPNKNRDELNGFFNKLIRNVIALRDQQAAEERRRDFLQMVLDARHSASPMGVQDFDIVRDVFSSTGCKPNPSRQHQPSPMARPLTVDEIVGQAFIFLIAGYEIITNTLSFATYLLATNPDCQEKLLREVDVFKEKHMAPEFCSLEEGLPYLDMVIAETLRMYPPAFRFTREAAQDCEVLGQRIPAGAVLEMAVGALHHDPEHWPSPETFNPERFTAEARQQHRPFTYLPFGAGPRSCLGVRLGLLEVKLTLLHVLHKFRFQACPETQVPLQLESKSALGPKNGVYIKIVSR

[3] = molecular target: T3, Estrogen receptor (Homo sapiens, UniProt P03372); conditions: sf9; further: in other assays of this panel Not Active means under 50% inhibition at 10 µM
T3 sequence (P03372 whole entry): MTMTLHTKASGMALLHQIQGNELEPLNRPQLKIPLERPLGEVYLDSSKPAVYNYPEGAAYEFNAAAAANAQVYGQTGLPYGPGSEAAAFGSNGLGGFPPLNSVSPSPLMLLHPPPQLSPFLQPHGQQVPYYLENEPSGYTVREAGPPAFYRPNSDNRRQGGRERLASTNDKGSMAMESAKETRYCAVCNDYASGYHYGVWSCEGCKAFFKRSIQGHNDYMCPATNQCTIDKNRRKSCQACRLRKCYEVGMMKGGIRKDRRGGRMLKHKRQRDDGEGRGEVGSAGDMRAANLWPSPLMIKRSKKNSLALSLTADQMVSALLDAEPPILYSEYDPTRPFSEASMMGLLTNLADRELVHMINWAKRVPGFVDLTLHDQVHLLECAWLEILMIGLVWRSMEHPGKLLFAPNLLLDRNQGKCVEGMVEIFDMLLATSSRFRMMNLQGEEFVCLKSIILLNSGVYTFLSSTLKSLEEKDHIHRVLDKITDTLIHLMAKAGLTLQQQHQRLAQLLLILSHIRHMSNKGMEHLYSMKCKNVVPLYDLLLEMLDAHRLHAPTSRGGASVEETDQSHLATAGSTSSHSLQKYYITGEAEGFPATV

[4] = molecular target: T4, Cysteinyl leukotriene receptor 1 (Homo sapiens, UniProt Q9Y271); type: cell membranes, Membrane; conditions: cho-k1; further: in other assays of this panel Not Active means under 50% inhibition at 10 µM
T4 sequence (Q9Y271 whole entry): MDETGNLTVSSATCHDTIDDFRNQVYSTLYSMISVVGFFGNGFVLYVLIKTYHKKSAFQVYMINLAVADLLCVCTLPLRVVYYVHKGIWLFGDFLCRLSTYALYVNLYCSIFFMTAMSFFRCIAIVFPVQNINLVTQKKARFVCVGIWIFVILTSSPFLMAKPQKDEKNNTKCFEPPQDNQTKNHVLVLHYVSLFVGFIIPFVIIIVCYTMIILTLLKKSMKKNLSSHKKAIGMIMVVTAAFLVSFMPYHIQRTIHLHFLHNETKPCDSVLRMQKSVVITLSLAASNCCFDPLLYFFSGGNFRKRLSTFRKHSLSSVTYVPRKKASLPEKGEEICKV

[5] = DRUGMATRIX: Purinergic P2X radioligand binding (ligand: [3H] alpha, beta-Methylene-ATP); type: cell membranes, Oryctolagus cuniculus, New Zealand albino, Urinary bladder, Membrane; conditions: Not Active = under 50% inhibition at 10 µM
[6] = molecular target: D(1A) dopamine receptor (Homo sapiens, UniProt P21728); assay: DRUGMATRIX: Dopamine D1 radioligand binding (ligand: [3H] SCH-23390); type: cell membranes, CHO, Membrane; conditions: cho; Not Active = under 50% inhibition at 10 µM
Sequence of D(1A) dopamine receptor (P21728 whole entry): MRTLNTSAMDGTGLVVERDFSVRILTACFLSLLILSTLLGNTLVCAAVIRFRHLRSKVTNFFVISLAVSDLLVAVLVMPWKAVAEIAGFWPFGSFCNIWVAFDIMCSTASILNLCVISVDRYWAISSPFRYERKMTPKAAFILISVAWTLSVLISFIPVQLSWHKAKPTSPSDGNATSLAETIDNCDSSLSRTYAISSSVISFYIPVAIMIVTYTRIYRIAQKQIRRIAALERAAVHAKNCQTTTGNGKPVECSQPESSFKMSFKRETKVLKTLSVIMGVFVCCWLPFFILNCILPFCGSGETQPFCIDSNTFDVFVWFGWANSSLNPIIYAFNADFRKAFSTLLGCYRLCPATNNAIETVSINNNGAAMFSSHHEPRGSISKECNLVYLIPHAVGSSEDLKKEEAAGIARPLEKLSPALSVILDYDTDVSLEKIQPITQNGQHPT

[7] = molecular target: T5, Alpha-1A adrenergic receptor (Rattus norvegicus, UniProt P43140); assay: DRUGMATRIX: Alpha-1A adrenergic receptor radioligand binding (ligand: prazosin); type: cell membranes, Wistar, Submaxillary gland, Membrane; conditions: Not Active = under 50% inhibition at 10 µM
T5 sequence (P43140 whole entry): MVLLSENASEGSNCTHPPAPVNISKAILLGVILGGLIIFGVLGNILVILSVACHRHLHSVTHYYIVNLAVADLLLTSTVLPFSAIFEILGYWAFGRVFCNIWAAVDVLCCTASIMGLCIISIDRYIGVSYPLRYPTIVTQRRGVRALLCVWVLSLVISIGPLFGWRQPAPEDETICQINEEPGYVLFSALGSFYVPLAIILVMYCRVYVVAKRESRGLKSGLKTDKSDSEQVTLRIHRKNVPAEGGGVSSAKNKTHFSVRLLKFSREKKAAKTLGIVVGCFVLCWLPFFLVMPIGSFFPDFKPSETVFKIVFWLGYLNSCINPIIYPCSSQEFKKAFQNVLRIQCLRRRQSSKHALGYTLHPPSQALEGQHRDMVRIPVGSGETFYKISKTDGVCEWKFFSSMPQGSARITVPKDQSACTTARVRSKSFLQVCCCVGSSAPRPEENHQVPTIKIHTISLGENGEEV

CCn1cc(C(=O)O)c(=O)c2cc(F)c(N3CCNCC3)nc21 [ENOXACIN]
Not Active: IC50 [1] | IC50 [2] | IC50 [3] | IC50 [4] | IC50 [5] | Ki [5] | IC50 [6] | IC50 [7]

CCC(=O)O[C@H]1[C@H](O[C@@H]2[C@@H](C)[C@H](O[C@H]3C[C@@](C)(OC)[C@@H](O)[C@H](C)O3)[C@@H](C)C(=O)O[C@H](CC)[C@@](C)(O)[C@H](O)[C@@H](C)C(=O)[C@H](C)C[C@@]2(C)O)O[C@H](C)C[C@@H]1N(C)C [ERYTHROMYCIN PROPIONATE]
Not Active: IC50 [1] | IC50 [2] | IC50 [3] | IC50 [4] | IC50 [5] | Ki [5] | IC50 [6] | IC50 [7]

COBALT(II) ACETYLACETONATE
Not Active: IC50 [1] | Ki [1] | IC50 [2] | Ki [2] | IC50 [3] | Ki [3] | IC50 [4] | Ki [4] | IC50 [5] | Ki [5] | IC50 [6] | Ki [6] | IC50 [7] | Ki [7]

O=C(O)Cc1ccc(-c2ccccc2)cc1 [FELBINAC]
Not Active: IC50 [1] | IC50 [2] | IC50 [3] | IC50 [4] | IC50 [5] | Ki [5] | IC50 [6] | IC50 [7]

NC[C@H]1O[C@H](O[C@H]2[C@H](O)[C@@H](O[C@H]3O[C@H](CO)[C@@H](O)[C@H](N)[C@H]3O)[C@H](N)C[C@@H]2N)[C@H](O)[C@@H](O)[C@@H]1O [KANAMYCIN]
Not Active: IC50 [1] | IC50 [2] | IC50 [3] | IC50 [4] | IC50 [5] | Ki [5] | IC50 [6] | IC50 [7]

OCCO [ETHYLENE GLYCOL]
Not Active: IC50 [1] | IC50 [2] | IC50 [3] | IC50 [4] | IC50 [5] | Ki [5] | IC50 [6] | IC50 [7]

CCN[C@@H](C)Cc1cccc(C(F)(F)F)c1 [DEXFENFLURAMINE]
Not Active: IC50 [1] | IC50 [2] | IC50 [3] | IC50 [4] | IC50 [5] | Ki [5] | IC50 [6] | IC50 [7]

C[C@]12C/C(=C/O)C(=O)C[C@@H]1CC[C@@H]1[C@@H]2CC[C@@]2(C)[C@H]1CC[C@]2(C)O [OXYMETHOLONE]
Not Active: IC50 [1] | IC50 [2] | IC50 [3] | IC50 [4] | IC50 [5] | Ki [5] | IC50 [6] | IC50 [7]

C=C(CC)C(=O)c1ccc(OCC(=O)O)c(Cl)c1Cl [ETHACRYNIC ACID]
Not Active: IC50 [1] | IC50 [2] | IC50 [3] | IC50 [4] | IC50 [5] | Ki [5] | IC50 [6] | IC50 [7]

CCOC(=O)[C@H](CCc1ccccc1)N[C@@H](C)C(=O)N1Cc2ccccc2C[C@H]1C(=O)O
Not Active: IC50 [1] | IC50 [2] | IC50 [3] | IC50 [4] | IC50 [5] | Ki [5] | IC50 [6] | IC50 [7]

CCc1oc2ccccc2c1C(=O)c1cc(Br)c(O)c(Br)c1 [BENZBROMARONE]
Not Active: IC50 [1] | IC50 [2] | IC50 [3] | IC50 [4] | IC50 [5] | Ki [5] | IC50 [6] | IC50 [7]

CC[C@H]1OC(=O)[C@H](C)[C@@H](O[C@H]2C[C@@](C)(OC)[C@@H](O)[C@H](C)O2)[C@H](C)[C@@H](O[C@@H]2O[C@H](C)C[C@H](N(C)C)[C@H]2O)[C@](C)(OC)C[C@@H](C)C(=O)[C@H](C)[C@@H](O)[C@]1(C)O [CLARITHROMYCIN]
Not Active: IC50 [1] | IC50 [2] | IC50 [3] | IC50 [4] | IC50 [5] | Ki [5] | IC50 [6] | IC50 [7]

CC(=O)O[C@]1(C(C)=O)CC[C@H]2[C@@H]3C=C(C)C4=CC(=O)CC[C@]4(C)[C@H]3CC[C@@]21C [MEGESTROL ACETATE]
Not Active: IC50 [1] | IC50 [2] | IC50 [3] | IC50 [4] | IC50 [5] | Ki [5] | IC50 [6] | IC50 [7]

CC(C)(Oc1ccc(C2CC2(Cl)Cl)cc1)C(=O)O (stereo not given) [CIPROFIBRATE]
Not Active: IC50 [1] | IC50 [2] | IC50 [3] | IC50 [4] | IC50 [5] | Ki [5] | IC50 [6] | IC50 [7]

Cc1cnc(C(=O)NCCc2ccc(S(=O)(=O)NC(=O)NC3CCCCC3)cc2)cn1 [GLIPIZIDE]
Not Active: IC50 [1] | IC50 [2] | IC50 [3] | IC50 [4] | IC50 [5] | Ki [5] | IC50 [6] | IC50 [7]

NC[C@@H]1O[C@H](O[C@H]2[C@@H](O)[C@H](O[C@@H]3[C@@H](O)[C@H](N)C[C@H](N)[C@H]3O[C@H]3O[C@H](CN)[C@@H](O)[C@H](O)[C@H]3N)O[C@@H]2CO)[C@H](N)[C@@H](O)[C@@H]1O [FRAMYCETIN]
Not Active: IC50 [1] | IC50 [2] | IC50 [3] | IC50 [4] | IC50 [5] | Ki [5] | IC50 [6] | IC50 [7]

COc1cc(CNC(=O)CCCC/C=C/C(C)C)ccc1O [CAPSAICIN]
Not Active: IC50 [1] | IC50 [2] | IC50 [3] | IC50 [4] | IC50 [5] | Ki [5] | IC50 [6] | IC50 [7]

CC(=O)OCC(CCn1cnc2cnc(N)nc21)COC(C)=O [FAMCICLOVIR]
Not Active: IC50 [1] | IC50 [2] | IC50 [3] | IC50 [4] | IC50 [5] | Ki [5] | IC50 [6] | IC50 [7]
